The subject of test [1] is Mtb clinical strain TN587 (isoniazide-resistant). Format: cell-based, Mycobacterium tuberculosis.
The subject of test [2] is Mtb clinical strain NHN382 (isoniazide-resistant). The format is cell-based, Mycobacterium tuberculosis.

Converted amounts (≈) assume the structure as drawn.

For `CCCCOC(=O)Nc1cc2nc(C3CCCCC3)[nH]c2cc1N(C)C` [Compound 5f, 5-Butyloxycarbonylamino-2-cyclohexyl-6-N,N-dimethylamino-1H-benzo[d]imidazole], the “MIC, Mtb strain TN587” value in test [1] is given as 0.13 µg/mL (≈ 0.363 µM).

`NNC(=O)c1ccncc1` [INH, isoniazid, reference compound]: the “MIC, Mtb strain TN587” value in test [1] turned out to be 0.25 µg/mL (≈ 1.82 µM). Also, the “MIC, Mtb strain NHN382” value in test [2] is listed as 0.25 µg/mL (≈ 1.82 µM).
